Format in all cases: cell-based, human
Settings in all cases: angiogenin 5 μg/ml

The subject of one experiment is eNOS. Nature of the experiment: Western blot of angiogenin lower pathway, eNOS. As for the experimental part:
(§1) The culture medium containing 5 μg/ml of angiogenin was treated with the cultured human corneal endothelial cells for 5 minutes, 10 minutes, 30 minutes, 1 hour, and 3 hours. Afterwards, according to the treatment times, expression aspects of Akt, eNOS, and Erk1/2 genes targeting the lower pathway of angiogenin were analyzed. First, a PRO-PREP™ protein extracting solution (Intron Biotechnology, Seongnam, Korea) was used to separate the total proteins from the corneal endothelial cells. The total proteins (30 μg/sample) were heat-treated at a temperature of about 100° C. for 5 minutes, and then, 10% sodiumdodecyl sulfate polyacrylamide (SDS-PAGE) gel was used to perform electrophoresis. The proteins separated according to molecular weights thereof were transferred to a polyvinylidene fluoride (PVDF) membrane, followed by being blocked by 5% BSA dissolved in 1× tris-buffered saline (TBS) at room temperature for 1 hour. […] The ECL western blotting detection reagent (Amersham Bioscience, Piscataway, USA) was used in terms of luminescence, and then, images were detected by using the same reagent for ChemiDoc™ XRS system (Bio-Rad, Hercules, USA).
Background: Immunoblotting shows a protein as a band on a membrane.

A further experiment has as its system Erk1/2. Nature of the experiment: Western blot of angiogenin lower pathway, Erk1/2. As for the experimental part: as §1
The next experiment concerns Akt. Nature of the experiment: Western blot of angiogenin lower pathway, Akt. As for the experimental part:
as §1

On to “Angiogenin: 14.4-kDa single chain protein of 123 amino acids, secreted protein capable of inducing angiogenesis”, for which, in the experiment on eNOS, the “Time of maximal p-eNOS expression after angiogenin treatment” value is 3 h. The “Relative expression of phosphate (p-form/t-form) of eNOS compared with the control group” value in the experiment with eNOS (5 minutes to 3 hours) was “increased extent of relative expression of phosphate (p-form/t-form)”. In addition, the “Time of maximal p-Erk1/2 expression after angiogenin treatment” value in the experiment on Erk1/2 was 30 min. For the same substance, in the experiment on Erk1/2 (5 minutes to 3 hours), the “Relative expression of phosphate (p-form/t-form) of Erk1/2 compared with the control group” value is listed as “increased extent of relative expression of phosphate (p-form/t-form)”. The “Time of maximal p-Akt expression after angiogenin treatment” value in the experiment with Akt was determined as 10 min. The “Relative expression of phosphate (p-form/t-form) of Akt compared with the control group” value in the experiment on Akt (5 minutes to 3 hours) is on record as “increased extent of relative expression of phosphate (p-form/t-form)”.

For the origin of these results see patent US9050301B2, “Pharmaceutical composition for treatment of corneal endothelial wounds containing angiogenin” (Chung-Ang University Industry-Academy Cooperation Foundation, priority 2013, dated 2015).
